Measured values taken from patent publication US20240368122A1, “JAK2 INHIBITORS AND METHODS OF USE THEREOF” (RELAY THERAPEUTICS, INC., priority 2021, published 2024).
Blank lines part the entries; values can stand above or below the compound they belong to.

Columns and labels:
[1] = test system: TF1 JAK2 V617F STAT5 reporter; test: Cellular TF1 STAT5 assay (luciferase reporter), JAK2 V617F; assay type: cell-based; conditions: TF1 JAK2 V617F, read-out: Cell PD TF1 V617F STAT5 (IC50)
Procedure, shortened: (§1)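 Inhibition of JAK2 V617F-mediated STAT3/STAT5 signalling is measured by reporter luminescence in TF1 erythroleukemia cells treated overnight (18-20 h) with a 10-point compound series; DMSO serves as vehicle.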

[2] = test system: TF1 JAK2 V617F STAT3 reporter; test: Cellular TF1 STAT3 assay (luciferase reporter), JAK2 V617F; assay type: cell-based; conditions: TF1 JAK2 V617F, read-out: Cell PD-TF1 JAK2 V617F STAT3 (IC50)
Procedure, shortened: as §1

[3] = biological target: T1, JAK2 JH2 WT (V536-D812) [W659A, W777A, F794H solubilizing mutations] (Homo sapiens, UniProt O60674, F794H/W659A/W777A); test: Surface Plasmon Resonance (SPR) binding assay, JAK2 JH2 domain; conditions: SPR, JAK2 JH2 domain
T1 construct: **JAK2 JH2 WT (V536-D812) [W659A, W777A, F794H solubilizing mutations]; C-thrombin-avi-His6; thrombin cleavage site (C); His6 (C); purchased Biortus
Procedure, shortened: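 Kinetics came from 1:1 fits of single-cycle runs at 20 °C: four 3-fold dilutions from 5 uM for JH1 or 500 nM for JH2, 60 s association, and 300 s or 1200 s dissociation respectively. Protein was freshly captured per compound in the presence of 10 uM stabilizer compound, with running buffer of pH 7.5 HEPES/NaCl/glycerol/DTT plus 2% DMSO.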

T1 sequence (O60674 536-812 W659A/W777A/F794H): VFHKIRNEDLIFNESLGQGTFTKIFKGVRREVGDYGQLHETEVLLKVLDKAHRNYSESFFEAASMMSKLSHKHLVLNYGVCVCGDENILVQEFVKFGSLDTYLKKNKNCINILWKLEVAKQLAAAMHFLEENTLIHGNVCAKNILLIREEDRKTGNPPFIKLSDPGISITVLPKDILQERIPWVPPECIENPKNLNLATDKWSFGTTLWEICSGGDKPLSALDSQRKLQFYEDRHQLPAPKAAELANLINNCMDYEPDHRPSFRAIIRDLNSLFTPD

- IC50 [1]: 500 to 5000 nM
- IC50 [2]: 500 to 5000 nM
- Kd [3]: 0.01 to 10 nM
Compound: CNC(=O)c1nnc(NC(=O)C2CC2)cc1Nc1cccc(-c2ccc(C(=O)N(C)Cc3cc(Cl)ccc3OC)nc2)c1OC [Compound 82]

- IC50 [1]: 500 to 5000 nM
- IC50 [2]: 500 to 5000 nM
- Kd [3]: 0.01 to 10 nM
Compound: CCOc1ccccc1CN(C)C(=O)c1ccc(-c2cccc(Nc3cc(NC(=O)C4CC4)nnc3C(=O)NC)c2OC)cn1 [Compound 83]

- IC50 [1]: 5000 to 100000 nM
- IC50 [2]: 500 to 5000 nM
- Kd [3]: 10 to 50 nM
Compound: CNC(=O)c1nnc(NC(=O)C2CC2)cc1Nc1cccc(-c2ccc(C(=O)N(C)Cc3cn4c(n3)CCCC4)nc2)c1OC [Compound 84]

- IC50 [1]: 500 to 5000 nM
- IC50 [2]: 500 to 5000 nM
- Kd [3]: 0.01 to 10 nM
Compound: CNC(=O)c1nnc(NC(=O)C2CC2)cc1Nc1cccc(-c2ccc(C(=O)N(C)Cc3ccc(OC(F)F)cc3)nc2)c1OC [Compound 85]

- IC50 [1]: 500 to 5000 nM
- IC50 [2]: 500 to 5000 nM
- Kd [3]: 0.01 to 10 nM
Compound: CNC(=O)c1nnc(NC(=O)C2CC2)cc1Nc1cccc(-c2ccc(C(=O)N(C)Cc3cn(C)cn3)nc2)c1OC [Compound 86]

- IC50 [1]: 500 to 5000 nM
- IC50 [2]: 500 to 5000 nM
- Kd [3]: 10 to 50 nM
Compound: CNC(=O)c1nnc(NC(=O)C2CC2)cc1Nc1cccc(-c2ccc(C(=O)N(C)Cc3ccc(N(C)C)nc3)nc2)c1OC [Compound 93]

- IC50 [1]: 500 to 5000 nM
- IC50 [2]: 500 to 5000 nM
- Kd [3]: 0.01 to 10 nM
Compound: CNC(=O)c1nnc(NC(=O)C2CC2)cc1Nc1cccc(-c2ccc(C(=O)N(C)Cc3ccc(OC)cc3)nc2)c1OC [Compound 94]

- IC50 [1]: 500 to 5000 nM
- IC50 [2]: 500 to 5000 nM
- Kd [3]: 0.01 to 10 nM
Compound: CCn1cncc1CN(C)C(=O)c1ccc(-c2cccc(Nc3cc(NC(=O)C4CC4)nnc3C(=O)NC)c2OC)cn1 [Compound 96]

- IC50 [1]: 50 to 500 nM
- IC50 [2]: 50 to 500 nM
- Kd [3]: 0.01 to 10 nM
Compound: CNC(=O)c1nnc(NC(=O)C2CC2)cc1Nc1cc(F)cc(-c2ccc(C(=O)N(C)Cc3ccn(C)n3)nc2)c1OC [Compound 97]

- IC50 [1]: 5000 to 100000 nM
- IC50 [2]: 500 to 5000 nM
- Kd [3]: 0.01 to 10 nM
Compound: CNC(=O)c1nnc(NC(=O)C2CC2)cc1Nc1cccc(-c2cnc(C(=O)N(C)Cc3ccon3)c(F)c2)c1OC [Compound 98]

- IC50 [1]: 5000 to 100000 nM
- IC50 [2]: 500 to 5000 nM
- Kd [3]: 0.01 to 10 nM
Compound: CNC(=O)c1nnc(NC(=O)C2CC2)cc1Nc1cccc(-c2ccc(C(=O)N(C)Cc3ccon3)nc2)c1OC [Compound 99]

- IC50 [1]: 500 to 5000 nM
- IC50 [2]: 500 to 5000 nM
- Kd [3]: 0.01 to 10 nM
Compound: CNC(=O)c1nnc(NC(=O)C2CC2)cc1Nc1cccc(-c2ccc(C(=O)N(C)Cc3cn(C)nn3)nc2)c1OC [Compound 100]

- IC50 [1]: 50 to 500 nM
- IC50 [2]: 50 to 500 nM
- Kd [3]: 0.01 to 10 nM
Compound: CNC(=O)c1nnc(NC(=O)C2CC2)cc1Nc1cccc(-c2ccc(C(=O)N(C)Cc3cn(C)nc3C)nc2)c1OC [Compound 101]

- IC50 [1]: 500 to 5000 nM
- IC50 [2]: 500 to 5000 nM
- Kd [3]: 0.01 to 10 nM
Compound: CNC(=O)c1nnc(NC(=O)C2CC2)cc1Nc1cccc(-c2ccc(C(=O)N(C)Cc3nc(C)no3)nc2)c1OC [Compound 102]

- IC50 [1]: 500 to 5000 nM
- IC50 [2]: 500 to 5000 nM
- Kd [3]: 10 to 50 nM
Compound: CNC(=O)c1nnc(NC(=O)C2CC2)cc1Nc1cccc(-c2ccc(C(=O)N(C)Cc3ccc(F)cc3)nc2)c1OC [Compound 113]

- IC50 [1]: 5000 to 100000 nM
- IC50 [2]: 5000 to 100000 nM
- Kd [3]: 10 to 50 nM
Compound: CNC(=O)c1nnc(NC(=O)C2CC2)cc1Nc1cccc(-c2ccc(C(=O)N(C)CC(F)F)nc2)c1OC [Compound 114]

Continued, compound first:

Compound: CNC(=O)c1nnc(NC(=O)C2CC2)cc1Nc1cccc(-c2cnn(C3CN(Cc4cc(OC)ccn4)C3)c2)c1OC [Compound 88]
- IC50 [1]: 500 to 5000 nM
- IC50 [2]: 500 to 5000 nM
- Kd [3]: 0.01 to 10 nM

Compound: CNC(=O)c1nnc(NC(=O)C2CC2)cc1Nc1cccc(-c2cnn(C3CN(Cc4cccnc4)C3)c2)c1OC [Compound 89]
- IC50 [1]: 50 to 500 nM
- IC50 [2]: 50 to 500 nM
- Kd [3]: 0.01 to 10 nM

Compound: CNC(=O)c1nnc(NC(=O)C2CC2)cc1Nc1cccc(-c2cnn(C3CN(Cc4ccccc4F)C3)c2)c1OC [Compound 90]
- IC50 [1]: 500 to 5000 nM
- IC50 [2]: 500 to 5000 nM
- Kd [3]: 0.01 to 10 nM

Compound: CNC(=O)c1nnc(NC(=O)C2CC2)cc1Nc1cccc(-c2cnn(C3CN(Cc4cccc(F)c4)C3)c2)c1OC [Compound 91]
- IC50 [1]: 500 to 5000 nM
- IC50 [2]: 500 to 5000 nM
- Kd [3]: 0.01 to 10 nM

Compound: CNC(=O)c1nnc(NC(=O)C2CC2)cc1Nc1cccc(-c2ccc(C(=O)N(C)Cc3ccc(F)cc3)cc2)c1OC [Compound 95]
- IC50 [1]: 5000 to 100000 nM
- IC50 [2]: 5000 to 100000 nM
- Kd [3]: 10 to 50 nM

Compound: CNC(=O)c1nnc(NC(=O)C2CC2)cc1Nc1ccc(C)c(-c2ccc(C(=O)N(C)Cc3cc(C#N)ccn3)cc2)c1OC [Compound 103]
- IC50 [1]: 500 to 5000 nM
- IC50 [2]: 50 to 500 nM
- Kd [3]: 0.01 to 10 nM

Compound: CNC(=O)c1nnc(NC(=O)C2CC2)cc1Nc1cccc(-c2cnn(C3CN(Cc4ncn(C)n4)C3)c2)c1OC [Compound 104]
- IC50 [1]: 500 to 5000 nM
- IC50 [2]: 500 to 5000 nM
- Kd [3]: 0.01 to 10 nM

Compound: [2H]C([2H])([2H])NC(=O)c1nnc(NC(=O)C2CC2)cc1Nc1cccc(-c2cnn(C3CN(Cc4ccccn4)C3)c2)c1OC [Compound 105]
- IC50 [1]: 50 to 500 nM
- IC50 [2]: 50 to 500 nM
- Kd [3]: 0.01 to 10 nM

Compound: CNC(=O)c1nnc(NC(=O)C2CC2)cc1Nc1cccc(-c2cnn(C3CN(Cc4cccc(C)n4)C3)c2)c1OC [Compound 106]
- IC50 [1]: 50 to 500 nM
- IC50 [2]: 50 to 500 nM
- Kd [3]: 0.01 to 10 nM

Compound: CNC(=O)c1nnc(NC(=O)C2CC2)cc1Nc1cccc(-c2cnn(C3CN(Cc4cccc(OC)n4)C3)c2)c1OC [Compound 107]
- IC50 [1]: 50 to 500 nM
- IC50 [2]: 50 to 500 nM
- Kd [3]: 0.01 to 10 nM

Compound: CNC(=O)c1nnc(NC(=O)C2CC2)cc1Nc1cccc(-c2ccc(C(=O)N3CCc4cccnc4C3)nc2)c1OC [Compound 108]
- IC50 [1]: 5000 to 100000 nM
- IC50 [2]: 5000 to 100000 nM
- Kd [3]: 10 to 50 nM

Compound: CNC(=O)c1nnc(NC(=O)C2CC2)cc1Nc1cccc(-c2cnn(C3CN(Cc4cccnn4)C3)c2)c1OC [Compound 109]
- IC50 [1]: 50 to 500 nM
- IC50 [2]: 50 to 500 nM
- Kd [3]: 0.01 to 10 nM

Compound: CNC(=O)c1nnc(NC(=O)C2CC2)cc1Nc1cccc(-c2cnn(C3CN(Cc4cnccn4)C3)c2)c1OC [Compound 110]
- IC50 [1]: 500 to 5000 nM
- IC50 [2]: 50 to 500 nM
- Kd [3]: 0.01 to 10 nM

Compound: CNC(=O)c1nnc(NC(=O)C2CC2)cc1Nc1cccc(-c2cnn(C3CN(Cc4cc(C)ccn4)C3)c2)c1OC [Compound 111]
- IC50 [1]: 50 to 500 nM
- IC50 [2]: 50 to 500 nM
- Kd [3]: 0.01 to 10 nM

Compound: CNC(=O)c1nnc(NC(=O)C2CC2)cc1Nc1cc(F)cc(-c2ccc(C(=O)N(C)Cc3cc(C#N)ccn3)nc2)c1OC [Compound 112]
- IC50 [1]: 50 to 500 nM
- IC50 [2]: 50 to 500 nM
- Kd [3]: 0.01 to 10 nM

Compound: CNC(=O)c1nnc(NC(=O)C2CC2)cc1Nc1cccc(-c2ccc(C(=O)N(C)Cc3cc(C#N)ccn3)c(C#N)c2)c1OC [Compound 118]
- IC50 [1]: 500 to 5000 nM
- IC50 [2]: 500 to 5000 nM
- Kd [3]: 0.01 to 10 nM

Compound: CNC(=O)c1nnc(NC(=O)C2CC2)cc1Nc1cccc(-c2ccc(C(=O)N3CCc4cnn(C)c4C3)nc2)c1OC [Compound 120]
- IC50 [1]: 5000 to 100000 nM
- IC50 [2]: 5000 to 100000 nM
- Kd [3]: 0.01 to 10 nM

Compound: CNC(=O)c1nnc(NC(=O)C2CC2)cc1Nc1cccc(-c2cnn(C3CN(CC4(C#N)CC4)C3)c2)c1OC [Compound 121]
- IC50 [1]: 5000 to 100000 nM
- IC50 [2]: 500 to 5000 nM
- Kd [3]: 0.01 to 10 nM

Compound: CNC(=O)c1nnc(NC(=O)C2CC2)cc1Nc1cccc(-c2cnn(C3CN(Cc4nccs4)C3)c2)c1OC [Compound 122]
- IC50 [1]: 50 to 500 nM
- IC50 [2]: 50 to 500 nM
- Kd [3]: 0.01 to 10 nM

Compound: CNC(=O)c1nnc(NC(=O)C2CC2)cc1Nc1cccc(-c2cnn(C3CN(Cc4ncc(C)s4)C3)c2)c1OC [Compound 123]
- IC50 [1]: 500 to 5000 nM
- IC50 [2]: 500 to 5000 nM
- Kd [3]: 0.01 to 10 nM
